Data as given in PMC7016953 (Cells, 2020).

What was measured:
TRPC3 [1] = system: T1, TRPC3; assay: Microfluorometric single-cell [Ca2+]i analysis, fura-2-loaded HEK cells stably expressing TRPC3; assay type: cell-based, human; details: 100 µM OAG applied sequentially; also in HEK cells expressing mouse TRPC3
T1 construct: expressed in transfected cells
Procedure: (§1) The microfluorometric single-cell [Ca^2+]i analysis was performed on an inverted epifluorescence microscope (Carl Zeiss, Jena, Germany) and calibrated as described. Cells were grown on 25 mm coverslips and loaded with 4 µM fura-2/AM (AAT Bioquest, Sunnyvale, CA, U.S.A.) in HBS containing 0.2% BSA for 30 min at 37 °C. After gently rinsing the coverslips with HBS, coverslips were mounted in a bath chamber and superfused with HBS containing 0.035% BSA.
Figure 2 Microfluorometric single-cell analysis of artemisinin-induced increases in [Ca^2+]i in fura-2-loaded HEK cells stably expressing TRPC3 (A), TRPC6 (B), or TRPC7 (C). […] Experiments were performed either in standard bath solution, containing 1 mM Ca^2+ (black lines and bars), or in a nominally Ca^2+-free HBS buffer, supplemented with 200 µM EGTA (grey lines and bars). Time courses of averaged responses (left), and statistical analysis of 6–11 independent imaging experiments with means and S.D. (right) are shown. Significant differences (p < 0.05, Student´s t-test with paired data: #, with unpaired data: *) are marked for the indicated comparisons; n.s.: difference is statistically not significant.

TRPC6 = system: T2, TRPC6; assay: Whole-cell patch-clamp recordings in HEK TRPC6-YFP cells; assay type: cell-based, human; details: 50 µM OAG, subsequent exposure
T2 construct: expressed in transfected cells
Procedure: (§2) The recordings of TRPC3, TRPC6, or TRPC7 membrane currents in HEK293 or PC12 cells were realized by using a Multiclamp 700B amplifier with a Digidata 1440A digitizer controlled by the PClamp 10 software (all Molecular Devices, Sunnyvale, CA, U.S.A.). Recordings were obtained at room temperature either in the whole-cell or in an outside-out configuration as indicated. Cells were seeded as described above, but at lower density, mounted in a chamber (Warner Instruments, Hamden, CT; U.S.A.), placed onto the stage of an inverted microscope, and perfused with required solution. The standard extracellular solution contained 140 mM NaCl, 5 mM CsCl, 2 mM MgCl2, 1 mM CaCl2, 10 mM HEPES, and 0.035% BSA adjusted to pH 7.4 with NaOH. The composition of standard intracellular solution was 140 mM CsCl, 1 mM MgCl2, 5 mM EGTA, and 10 mM HEPES adjusted to pH 7.25 with CsOH; the osmolarity was 295 mOsm l^−1. In outside-out measurements, the pipette solution contained 5 mM EGTA and 1.1 mM CaCl2 to achieve a calculated free Ca^2+ concentration of 100 nM.
(§3) Patch pipettes were pulled from borosilicate glass capillaries BG150F-8P (Science Products, Hofheim, Germany) with a PIP6 pipette puller (HEKA Elektronik, Lambrecht, Germany). […] In all whole-cell measurements, the series resistance was lower than 13 MΩ, and compensated by 70%. […]

TRPC3 [2] = biological target: T3, TRPC3 (Homo sapiens, UniProt Q13507); assay: Fluo-4 Ca2+ influx assay in HEK TRPC3-YFP cell suspensions; assay type: cell-based
T3 construct: expressed in transfected cells
T3 sequence (Q13507 1-848 isoform Q13507-3): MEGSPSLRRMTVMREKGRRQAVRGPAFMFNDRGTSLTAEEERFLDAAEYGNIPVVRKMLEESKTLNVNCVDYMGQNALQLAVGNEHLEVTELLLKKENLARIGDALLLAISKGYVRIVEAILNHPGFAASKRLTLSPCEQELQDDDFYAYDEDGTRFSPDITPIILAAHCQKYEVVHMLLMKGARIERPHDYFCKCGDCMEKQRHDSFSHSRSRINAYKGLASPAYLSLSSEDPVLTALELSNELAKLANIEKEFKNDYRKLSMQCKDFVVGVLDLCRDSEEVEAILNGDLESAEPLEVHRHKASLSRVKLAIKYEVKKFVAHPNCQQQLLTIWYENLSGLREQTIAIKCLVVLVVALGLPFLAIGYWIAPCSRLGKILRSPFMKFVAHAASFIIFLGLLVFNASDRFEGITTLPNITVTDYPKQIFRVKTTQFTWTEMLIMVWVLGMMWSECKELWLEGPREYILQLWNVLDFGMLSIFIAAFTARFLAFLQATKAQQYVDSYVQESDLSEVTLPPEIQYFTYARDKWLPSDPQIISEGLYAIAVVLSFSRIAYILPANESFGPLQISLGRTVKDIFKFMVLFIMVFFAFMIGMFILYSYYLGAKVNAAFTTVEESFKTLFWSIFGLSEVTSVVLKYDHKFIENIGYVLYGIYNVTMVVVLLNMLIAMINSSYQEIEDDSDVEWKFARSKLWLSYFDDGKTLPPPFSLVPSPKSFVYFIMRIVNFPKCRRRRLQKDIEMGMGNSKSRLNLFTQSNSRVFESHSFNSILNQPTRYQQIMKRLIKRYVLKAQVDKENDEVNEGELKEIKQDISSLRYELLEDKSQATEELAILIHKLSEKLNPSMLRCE

TRPC7 = system: T4, TRPC7; assay: Whole-cell patch-clamp recordings in HEK TRPC7-YFP cells; assay type: cell-based, human; details: 50 µM OAG, subsequent exposure
T4 construct: expressed in transfected cells
Procedure: as §2, §3

[3] = system: PC12 cells (native TRPC3 channel complexes); assay: [Ca2+]i analysis in fura-2-loaded PC12 cells; assay type: cell-based, rat; details: artemisinin 50 or 100 µM; 6–12 experiments for each compound
Procedure: Human embryonic kidney 293 (HEK293) cells were stably transfected with expression plasmids that encode hTRPC3-YFP, hTRPC6-YFP, hTRPC7-YFP, mTRPC4ß-YFP, rTRPV1-CFP, rTRPV2-YFP, rTRPV3-YFP, mTRPV4-YFP, or hTRPM2 as previously described. Cell lines were cultured in Earle’s minimum essential medium (MEM; Sigma, Munich, Germany), supplemented with 10% fetal calf serum (Gibco Thermo Fisher Scientific, Darmstadt, Germany), 2 mM L-glutamine, and required concentrations of geneticin in a range of 0.4–1 mg/mL. A HEK293mTRPC5-YFP cell line was maintained and induced as described before. The HEK293mTRPM3α2 cells (expressing the Ca^2+-permeable main variant of mouse TRPM3) were kindly provided by Johannes Oberwinkler (Marburg, Germany), the HEK293hTRPA1 cells that constitutively overexpress the human TRPA1 were from Dr. Natalie Tigue and Dr. Steve Moore (GlaxoSmithKline, Harlow, UK). With the exception of mTRPC5-YFP, all cell lines constitutively overexpress the respective TRP channel under the control of a cytomegalovirus (CMV) promoter. A HEK cell line stably expressing the human protein kinase C (PKC) ε C-terminally tagged with YFP [13] was generated and maintained in the same medium as HEKTRPC3-YFP cells. PC12 cells were cultured in RPMI-1640 (Sigma, Munich, Germany) with 10% fetal calf serum, 2 mM L-glutamine, 100 U/mL penicillin, and 0.1 mg/mL streptomycin. For electrophysiological and single cell [Ca^2+]i imaging experiments, PC12 cells were plated onto 25 mm poly-L-lysine-coated glass coverslips and measured 24–48 h after seeding. All cells were maintained at 37 °C in a 5% CO2-aerated, humidified atmosphere.
as §1
Figure 7 Expression of TRPC3 and functional responses to TRPC activators in PC12 rat pheochromocytoma cells. (A) Immunofluorescence analysis of TRPC3 (green channel) and tyrosine hydroxylase (TH; red channel) expression in PC12 cells. Nuclei were counterstained with DAPI (blue channel). Bars: 20 µm scale. Time course of the [Ca^2+]i (B) and averaged basal and peak [Ca^2+]i values (C) were recorded by microfluorometric analysis in fura-2-loaded PC12 cells grown on glass coverslips. […] Data represent averages (B) or means and S.D. (C) of 6–12 imaging experiments for each compound. Significant increases compared to the respective basal values are indicated (#: p < 0.05; Student´s t-test for paired data).

parental HEK293 cells = assay: [Ca2+]i response in un-transfected parental HEK293 cells; assay type: cell-based, human; details: concentrations up to 50 µM
Procedure: (§4) All fluorometric Ca^2+ assays were done in (4-(2-hydroxyethyl)-1-piperazineethanesulfonic acid) (HEPES)-buffered saline (HBS), containing 132 mM NaCl, 6 mM KCl, 1 mM MgCl2, 1 mM CaCl2, 5.5 mM D-glucose, 10 mM HEPES, and 0.035% bovine serum albumin (BSA) adjusted to pH 7.4 with NaOH. For measurements in Ca^2+-free bath solutions, a modified HBS without CaCl2 was supplemented with 200 µM ethylene glycol-bis(β-aminoethyl ether)-N,N,N′,N′-tetraacetic acid (EGTA).
(§5) The primary compound screen and the generation of concentration response curves in HEK293 cells or in PC12 cells were performed by using a custom-made fluorescence plate imager built into a robotic liquid handling station equipped with a 96-tip multichannel head (Freedom Evo 150, Tecan, Männedorf, Switzerland) as described previously. To this end, trypsinized cell suspensions were loaded with 4 µM fluo-4/AM (Invitrogen, Thermo Fisher Scientific, Waltham, MA, U.S.A.) in cell culture medium for 30 min at 37 °C. After brief centrifugation, cells were resuspended in HBS and dispensed into black pigmented, clear-bottom 384-well plates (Greiner µClear, Frickenhausen, Germany). Plates were mounted on the imager, and fluorescence signals were recorded with a cooled Zyla 5.5 camera (Andor, Belfast, UK) through a 515 nm long pass filter. The image acquisition was controlled by the µManager software (http://micro-manager.org), and excitation with a LED array (470 nm) was synchronized by the camera trigger output. After baseline recording for about 60 s, the compound libraries or serial dilutions of activators or inhibitors were added to the cells by the liquid handling device. When inhibitory potencies were evaluated, a second pipetting step with the respective reference agonist was performed. Fluorescence intensities were calculated from image stacks for each well with ImageJ (National Institutes of Health, Bethesda, MD, U.S.A.), corrected for background signals, and normalized to the initial intensities (F/F0). […]

[4] = system: T5, heteromeric TRPC3:TRPC6 channel complexes; assay: Fluo-4 Ca2+ influx assay in HEK293 cells co-expressing TRPC3 and TRPC6; assay type: cell-based; details: fluo-4 concentration response analysis
T5 construct: expressed in transfected cells; host or cells: HEK293, stably co-transfected
Procedure: as §4, §5

hTRPC7-YFP = system: T6, hTRPC7-YFP; assay: Fluo-4 Ca2+ influx assay in HEK293 cells stably expressing TRPC7; assay type: cell-based, human; details: fluo-4 concentration response analysis
T6 construct: expressed in transfected cells

hTRPC6-YFP = system: T7, hTRPC6-YFP; assay: Fluo-4 Ca2+ influx assay in HEK293 cells stably expressing TRPC6; assay type: cell-based, human
T7 construct: expressed in transfected cells

| Compound | further increase in [Ca2+]i after challenge with maximally effective artemisinin (TRPC3 [1]) | current densities in TRPC6-expressing HEK cells (TRPC6) | EC50 of OAG in the presence of artemisinin (TRPC3 [2]; 30 or 100 µM artemisinin co-applied) | current densities in TRPC7-expressing HEK cells (TRPC7) | [Ca2+]i in fura 2-loaded PC12 cells [3] | response of un-transfected parental HEK293 cells (parental HEK293 cells) | response of cells stably transfected with both TRPC3 and TRPC6 [4] | effect on TRPC7 (hTRPC7-YFP) | effect on TRPC6 (hTRPC6-YFP; fluo-4 concentration response analysis) | signal in counterscreen with TRPC6-expressing cells (hTRPC6-YFP; primary screen, 20 µM) | fluorescence signal of the Ca2+ indicator in primary screen (TRPC3 [2]; 20 µM, acute addition) | TRPC3 activation in concentration response analysis (TRPC3 [2]; fluo-4, up to 200 µM, compared with solvent (DMSO)) |
| --- | --- | --- | --- | --- | --- | --- | --- | --- | --- | --- | --- | --- |
| CCCCCCCC/C=C\CCCCCCCC(=O)OC[C@H](CO)OC(C)=O [OAG, 1-oleoyl-2-acetyl-sn-glycerol] | failed to induce a further increase in [Ca^2+]i | caused increases in current densities | shifted to lower concentrations | caused increases in current densities | significant increases in [Ca^2+]i | – | – | – | – | – | – | – |
| C[C@H]1[C@@H](O)O[C@@H]2O[C@@]3(C)CC[C@H]4[C@H](C)CC[C@@H]1[C@@]24OO3 [artenimol] | – | – | – | – | – | no response | in a very similar fashion as HEKTRPC3-YFP cells | remained largely unaffected | marked preference to activate TRPC3, but not the closely related TRPC6 channel | no signals | immediate and transient increase in the fluorescence signal | did not reach saturation |
